Assay results: US20090238852A1, “METHODS FOR CONTROLLING INTRACELLULAR CALCIUM LEVELS ASSOCIATED WITH AN ISCHEMIC EVENT” (University of Utah Research Foundation, priority 2008, published 2009)

How the values were obtained:
[1] = tested on: rabbit ventricular myocytes; test: Intracellular sodium [Na^+]i in ventricular myocytes during PMI, Sodium Green flow cytometry; format: cell-based; conditions: PMI + ODSH 100 μg/mL; n = 7; PMI alone 11.16 ± 0.90, Hepes 6.04 ± 0.25
Protocol: In these studies, intracellular calcium concentration [Ca^++]i was measured by flow cytometry. Measurement of isolated mouse and rabbit ventricular myocyte [Ca^2+]i and [Na^+]i by flow cytometry has been described (Zhang et al., J. Cardiovasc. Pharmacol. 51: 443-449 (2008); Li et al., J. Mol. Cell. Cardiol. 33: 2145-2155 (2001)). [Ca^++]i was measured with the Ca^++ sensitive fluorescent probe, Fluo 3-AM (Molecular Probes, Eugene, Oreg.), using a FACScan (Becton-Dickinson, MA). The cells were exposed to 4 μmol/L Fluo-3 AM for 30 min at 37° C. The cells were then separated into aliquots. After 40 min of wash, the cells were exposed to paced metabolic ischemia (MI) for 45 min at 37° C. Metabolic ischemia was accomplished by incubating cells in a glucose-free MKRBB solution (pH 7.40) containing 2 mmol/L sodium cyanide (NaCN) to impair mitochondrial and glycolytic generation of ATP. […] Approximately 2×10^3 myocytes were analyzed to calculate average emission fluorescence intensity in each sample. […] Only those cells with low fluorescence intensity at 670 nm (PI-negative cells or viable cells) were included in the comparative analysis of [Ca^++]i. The sample [Ca^2+]i values were calculated by Mn^2+ quenching (Sugishita et al, 2001) and [Na^+]i values by comparison with a standard curve of varied [Na^+]i versus Na Green fluorescence. […] Results were expressed as means±SEM. […]

[2] = tested on: blood coagulation (aPTT, PT, ACT); test: Phase I single IV bolus study: coagulation tests (aPTT, PT, ACT); format: in vivo, human
Protocol: A study was performed in 38 volunteer human subjects to assess the safety of escalating bolus doses of 2-O, 3-O desulfated heparin (ODSH). The study was a Phase I, randomized, double-blind, dose-escalation study with a single-day treatment period. Subjects were between the ages of 18 and 45, were not pregnant, and were normal in body weight. They all had normal coagulation function and hemoglobin values at baseline.
Two subjects also received an injection of fully anticoagulated unfractionated heparin for comparison. ODSH dose groups were run in a series, and safety and tolerance data were evaluated prior to the start of the next dose level (4, 8 12, 16 and 20 mg/kg bolus intravenous doses). Twenty eight (28) subjects randomly received ODSH and 9 subjects were randomized to receive placebo, with an additional two subjects receiving commercially available unfractionated heparin.
For each bolus dose, ODSH as a 50 mg/mL formulation was diluted with normal saline and a total volume of 50 ml was infused over 15 minutes containing the calculated amount of ODSH the subject was to receive. Placebo consisted of 50 mL of normal saline infused over 15 minutes. For subjects receiving heparin, 5,000 units (approximately 0.5 mg/kg) of heparin was diluted into 50 ml of normal saline and infused over 15 minutes.
Immediately before infusion and beginning 7 minutes after the start of each infusion, blood was drawn at periodic times for 24 hours to monitor the effect of infusion on the following laboratory studies: activated partial thromboplastin time (aPTT); prothrombin time (PT); activated clotting time (ACT); and ODSH plasma level. Serum chemistries and a complete blood count were checked immediately before infusion and at eight (8) and twenty-four (24) hours later. Using values for aPTT and ODSH levels, pharmacokinetic parameters were calculated by noncompartmental methods using a commercial software program (PhAST 2.3-001). […]

[3] = tested on: anti-coagulant activity (USP); conditions: product of the procedure of U.S. Pat. No. 5,990,097; cited from earlier work

**Q.** With 2-O, 3-O desulfated heparin [ODSH] as the substance, how does the [Na^+]i [1] read?
**A.** 7.85 ± 0.45 mM

**Q.** What about the PT ([2]; IV bolus 4 to 20 mg/kg) of the same substance?
**A.** increased in a dose-dependent manner

**Q.** And the “change from baseline in aPTT” value ([2]; IV bolus 4 to 20 mg/kg, FIG. 16)?
**A.** rapid increase in aPTT over the infusion period in a dose-dependent fashion

**Q.** What about the “mean ACT value at 15 minutes” value ([2]; ODSH 20 mg/kg IV bolus) of the same substance?
**A.** 207 s

**Q.** What about the “change from baseline in ACT” value ([2]; bolus doses of 12-20 mg/kg, FIG. 17) of the same substance?
**A.** Therapeutic increases in the ACT

**Q.** What about the anti-coagulant activity [3] of the same substance?
**A.** less than 10 USP units/mg
